How the values were obtained:
[1] = Selectivity ratio of Ki for delta opioid receptor to Ki for kappa opioid receptor
[2] = target: Mu-type opioid receptor (Homo sapiens, UniProt P35372); test: Displacement of [3H]DAMGO from mu opioid receptor
[3] = target: T1, Kappa-type opioid receptor (Homo sapiens, UniProt P41145); test: Displacement of [3H]U69593 from kappa opioid receptor
[4] = Selectivity ratio of Ki for mu opioid receptor to Ki for kappa opioid receptor
[5] = target: Delta-type opioid receptor (Homo sapiens, UniProt P41143); test: Displacement of [3H]DADLE from delta opioid receptor
[6] = target: T1, Kappa-type opioid receptor; test: Agonist activity at kappa opioid receptor assessed as stimulation of [35S]GTPgammaS binding relative to U50488; type: functional

Sequence of Mu-type opioid receptor (P35372 whole entry): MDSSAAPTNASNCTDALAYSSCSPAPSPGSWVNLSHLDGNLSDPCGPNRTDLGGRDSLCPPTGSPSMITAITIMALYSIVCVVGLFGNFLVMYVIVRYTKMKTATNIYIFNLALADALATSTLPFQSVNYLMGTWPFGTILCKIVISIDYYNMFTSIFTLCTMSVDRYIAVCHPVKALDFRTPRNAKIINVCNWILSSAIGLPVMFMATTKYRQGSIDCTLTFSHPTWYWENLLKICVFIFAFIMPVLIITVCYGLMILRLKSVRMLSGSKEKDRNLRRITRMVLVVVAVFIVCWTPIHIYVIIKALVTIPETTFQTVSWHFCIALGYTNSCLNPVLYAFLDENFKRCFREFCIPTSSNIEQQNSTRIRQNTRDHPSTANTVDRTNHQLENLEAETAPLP
Sequence of Delta-type opioid receptor (P41143 whole entry): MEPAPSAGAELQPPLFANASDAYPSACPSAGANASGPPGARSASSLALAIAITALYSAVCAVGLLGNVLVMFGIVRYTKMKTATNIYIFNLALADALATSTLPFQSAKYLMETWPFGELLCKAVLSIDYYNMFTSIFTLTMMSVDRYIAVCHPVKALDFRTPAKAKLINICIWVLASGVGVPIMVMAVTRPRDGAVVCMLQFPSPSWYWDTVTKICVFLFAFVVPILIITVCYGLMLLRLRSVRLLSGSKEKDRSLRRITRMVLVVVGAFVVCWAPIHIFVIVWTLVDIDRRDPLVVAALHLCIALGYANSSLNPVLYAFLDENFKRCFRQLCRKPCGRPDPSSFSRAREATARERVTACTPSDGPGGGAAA
T1 sequence (P41145 whole entry): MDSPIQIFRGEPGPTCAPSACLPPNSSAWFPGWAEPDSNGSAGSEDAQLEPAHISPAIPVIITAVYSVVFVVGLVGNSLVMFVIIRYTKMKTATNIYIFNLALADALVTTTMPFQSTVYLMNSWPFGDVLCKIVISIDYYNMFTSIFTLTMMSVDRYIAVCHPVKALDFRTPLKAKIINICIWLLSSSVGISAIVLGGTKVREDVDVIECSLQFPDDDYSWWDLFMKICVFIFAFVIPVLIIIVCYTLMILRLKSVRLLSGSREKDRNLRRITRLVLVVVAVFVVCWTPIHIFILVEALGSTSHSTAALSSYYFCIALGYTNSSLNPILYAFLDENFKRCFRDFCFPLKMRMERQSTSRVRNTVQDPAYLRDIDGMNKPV

| SMILES | Ratio Ki [1] | Ki [2] [nM] | Ki [3] [nM] | Ratio Ki [4] | Ki [5] [nM] | Emax [6] [%] |
| --- | --- | --- | --- | --- | --- | --- |
| COC(=O)[C@@H]1C[C@H](OC(C)=O)C(=O)[C@H]2[C@@]1(C)CC[C@H]1C(=O)O[C@H](C3=CC4OC3C3C5OC(c6c5c5ccccc5c(=O)c5ccccc65)C43)C[C@]21C (mixture of isomers) | > 17 | > 2700 | > 13000 | > 0.2 | > 5200 | – |
| COC(=O)[C@@H]1C[C@H](OC(C)=O)C(=O)[C@H]2[C@@]1(C)CC[C@H]1C(=O)O[C@H](C3=CC4OC3c3ccccc34)C[C@]21C (some centres not stated) | > 13 | > 2500 | 790 | > 3 | > 10000 | – |
| CCOC(=O)C1=C(C(=O)OCC)C2OC1C=C2[C@@H]1C[C@]2(C)[C@H]3C(=O)[C@@H](OC(C)=O)C[C@@H](C(=O)OC)[C@]3(C)CC[C@H]2C(=O)O1 (some centres not stated) | 19 | > 3200 | 120 | > 25 | 2260 | 90 |
| COC(=O)c1ccc([C@@H]2C[C@]3(C)[C@H]4C(=O)[C@@H](OC(C)=O)C[C@@H](C(=O)OC)[C@]4(C)CC[C@H]3C(=O)O2)cc1C(=O)OC | > 17 | > 3000 | 286 | > 8 | > 5000 | – |
| COC(=O)[C@@H]1C[C@H](OC(C)=O)C(=O)[C@H]2[C@@]1(C)CC[C@H]1C(=O)O[C@H](C3=CC4OC3C3C4C4OC3(C)c3c4c4ccccc4c(=O)c4ccccc34)C[C@]21C (some centres not stated) | > 17 | > 1700 | 290 | > 6 | > 5000 | – |
| COC(=O)[C@@H]1C[C@H](OC(C)=O)C(=O)[C@H]2[C@@]1(C)CC[C@H]1C(=O)O[C@H](c3ccc4ccccc4c3)C[C@]21C | > 0.6 | > 3000 | > 8000 | > 0.4 | > 5000 | – |
| COC(=O)C1=C(C(=O)OC)C2OC1C=C2[C@@H]1C[C@]2(C)[C@H]3C(=O)[C@@H](OC(C)=O)C[C@@H](C(=O)OC)[C@]3(C)CC[C@H]2C(=O)O1 (some centres not stated) | > 83 | > 4800 | 60 | > 80 | > 5000 | 100 |
| CCOC(=O)c1ccc([C@@H]2C[C@]3(C)[C@H]4C(=O)[C@@H](OC(C)=O)C[C@@H](C(=O)OC)[C@]4(C)CC[C@H]3C(=O)O2)cc1C(=O)OCC | > 22 | > 3000 | 228 | > 13 | > 5000 | – |
